Structures can show the parent of a compound that is named as a salt. Where two headings read alike, the source gives them in different places.
Assays:
Type in all cases: biochemical
[1] = molecular target: T1, human thrombin (Homo sapiens, UniProt P00734); assay: Inhibition of human thrombin (chromogenic substrate S2238), inhibitory constant Ki; conditions: 0.2-0.5 nM human thrombin, S2238, pH 7.5, 30 minutes; read-out: Ki values for inhibition of Serine Proteases: Thrombin
T1 construct: purchased Enzyme Research Laboratories, South Bend, Ind
Experimental: (§1) The effectiveness of compounds of the present invention as inhibitors of blood coagulation proteases was determined using purified human proteases and synthetic substrates following procedures similar to those described in Kettner et al. (1990).
(§2) For these assays, the rate of enzymatic (thrombin, Factor Xa, and Factor VIIa) hydrolysis of chromogenic substrates (S2238 (H-D-Phe-Pip-Arg-pNA), S2222, and S2288, respectively; Kabi Pharmacia, Franklin, Ohio.) was measured both in the absence and presence of compounds of the present invention. […] A decrease in the rate of absorbance change at 405 nm in the presence of inhibitor is indicative of enzyme inhibition. The results of this assay are expressed as inhibitory constant, Ki.
(§3) Thrombin and Xa determinations were made in 0.10M sodium phosphate buffer, pH 7.5, containing 0.20M NaCl, and 0.5% PEG 8000. VIIa determinations were made in 0.05M tris buffer, pH 7.6, containing 0.10M NaCl, 4 mM CaCl2, and 0.1% bovine serum albumin. The Michaelis constant, Km, for substrate hydrolysis was determined at 5° C. using the method of Lineweaver and Burk.
(§4) Values of Ki were determined by allowing 0.2-0.5 nM human thrombin or human factor Xa (Enzyme Research Laboratories, South Bend, Ind.), or 50 nM human factor VIIa (BiosPacific, Emeryville, Calif.) react with the substrate (0.20 mM-1 mM) in the presence of inhibitor. Reactions were allowed to go for 30 minutes and the velocities (rate of absorbance change vs time) were measured in the time frame of 25-30 minutes. The following relationship was used to calculate Ki values. [formula] where: vo is the velocity of the control in the absence of inhibitor;
(§5) vs is the velocity in the presence of inhibitor;
(§6) I is the concentration of inhibitor;
(§7) Ki is the dissociation constant of the enzyme: inhibitor complex;
(§8) S is the concentration of substrate;
(§9) Km is the Michaelis constant.

[2] = molecular target: T2, human factor Xa (Homo sapiens, UniProt P00742); assay: Inhibition of human factor Xa (chromogenic substrate S2222), inhibitory constant Ki; conditions: S2222, pH 7.5, 30 minutes, read-out: Ki values for inhibition of Serine Proteases: Factor Xa
T2 construct: purchased Enzyme Research Laboratories, South Bend, Ind
Experimental: as §1, §2, §3, §4, §5, §6, §7, §8, §9

[3] = molecular target: T3, human factor VIIa (Homo sapiens, UniProt P08709); assay: Inhibition of human factor VIIa (chromogenic substrate S2288), inhibitory constant Ki
T3 construct: Factor VIIa in the extrinsic pathway; purchased BiosPacific, Emeryville, Calif
T3 sequence (P08709 213-466 limits assumed): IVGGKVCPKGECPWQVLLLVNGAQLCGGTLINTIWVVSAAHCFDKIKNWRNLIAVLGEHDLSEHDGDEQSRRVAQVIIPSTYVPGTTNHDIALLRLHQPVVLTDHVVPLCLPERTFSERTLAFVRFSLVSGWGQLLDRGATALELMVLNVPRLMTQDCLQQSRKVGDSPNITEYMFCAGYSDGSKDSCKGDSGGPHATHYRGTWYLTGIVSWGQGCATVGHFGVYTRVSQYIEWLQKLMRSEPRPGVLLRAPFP
T3 sequence (P08709 61-212 partner limits assumed): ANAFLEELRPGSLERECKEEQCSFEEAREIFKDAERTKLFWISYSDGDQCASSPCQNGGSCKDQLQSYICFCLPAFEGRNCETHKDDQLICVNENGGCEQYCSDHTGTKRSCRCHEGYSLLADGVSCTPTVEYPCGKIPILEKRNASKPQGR
Experimental: as §1, §2, §3, §4, §5, §6, §7, §8, §9

[4] = 50 nM human factor VIIa, S2288, pH 7.6, 4 mM CaCl2, 30 minutes, read-out: Ki values for inhibition of Serine Proteases: Factor VIIa

T2 sequence (P00742 235-488 limits assumed): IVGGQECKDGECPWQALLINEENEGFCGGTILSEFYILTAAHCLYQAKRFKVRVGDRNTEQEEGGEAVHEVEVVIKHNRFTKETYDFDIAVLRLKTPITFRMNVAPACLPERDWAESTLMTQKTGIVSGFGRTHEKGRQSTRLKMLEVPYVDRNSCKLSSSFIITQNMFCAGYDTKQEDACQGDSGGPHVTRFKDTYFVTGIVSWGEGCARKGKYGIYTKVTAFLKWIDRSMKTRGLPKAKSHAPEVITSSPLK
T2 sequence (P00742 41-179 partner limits assumed): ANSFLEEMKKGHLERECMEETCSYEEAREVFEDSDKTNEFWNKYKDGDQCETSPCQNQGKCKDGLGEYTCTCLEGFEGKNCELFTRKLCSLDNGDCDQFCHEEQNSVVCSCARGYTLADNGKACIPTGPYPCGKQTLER

CC1(C)C2CC3OB([C@H](CCCCN)NC(=O)Cn4nc(CCc5ccccc5)nc4CO)OC3(C)C1C2 (single isomer, unassigned) [Example 2780]
Ki [1]: < 500 nM
Ki [2]: 500 to 50000 nM
Ki [3, 4]: < 500 nM

CC1(C)C2CC3OB([C@H](CCCCN)NC(=O)c4cnc(-c5ccccc5)nc4-c4ccccc4)OC3(C)C1C2 (single isomer, unassigned) [Example 3465]
Ki [1]: < 500 nM
Ki [2]: 500 to 50000 nM
Ki [3, 4]: 500 to 50000 nM

CC1(C)C2CC3OB([C@H](CCCCN)NC(=O)Cn4nc(COCc5ccccc5)nc4CCc4ccccc4)OC3(C)C1C2 (single isomer, unassigned) [Example 2068]
Ki [1]: < 50000 nM
Ki [2]: 500 to 50000 nM
Ki [3, 4]: 500 to 50000 nM

CC1(C)[C@@H]2C[C@H]3OB([C@H](CCCNC(=N)N)NC(=O)c4ccc(-c5ccccc5)cc4F)O[C@@]3(C)[C@H]1C2 [Example 199]
Ki [1]: < 500 nM
Ki [2]: < 500 nM
Ki [3, 4]: < 500 nM

Cc1nc(-c2ccccc2)nn1CC(=O)N[C@@H](CCCCN)B1OC2CC3CC(C3(C)C)C2(C)O1 (single isomer, unassigned) [Example 2074]
Ki [1]: < 500 nM
Ki [2]: 500 to 50000 nM
Ki [3, 4]: 500 to 50000 nM

COCCC[C@H](NC(=O)c1ccc(-c2ccccc2S(N)(=O)=O)cc1C)B1O[C@@H]2C[C@@H]3C[C@@H](C3(C)C)[C@]2(C)O1 [Example 305]
Ki [1]: < 50000 nM
Ki [2]: 500 to 50000 nM
Ki [3, 4]: 500 to 50000 nM

CC1(C)[C@@H]2C[C@H]3OB([C@H](CCCCN)NC(=O)Cn4nc(CO)nc4Cc4ccccc4)O[C@@]3(C)[C@H]1C2 [Example 913]
Ki [1]: < 500 nM
Ki [2]: > 500000 nM
Ki [3, 4]: 500 to 50000 nM

CC1(C)C2CC3OB([C@H](CCCCN)NC(=O)Cn4cnc(-c5ccccc5)n4)OC3(C)C1C2 (single isomer, unassigned) [Example 2073]
Ki [1]: < 500 nM
Ki [2]: 500 to 50000 nM
Ki [3, 4]: 500 to 50000 nM

CC(C)(C)NS(=O)(=O)c1ccccc1-c1ccc(C(=O)N[C@@H](CCCNC=N)B2O[C@@H]3C[C@@H]4C[C@@H](C4(C)C)[C@]3(C)O2)cc1 [Example 302]
Ki [1]: < 500 nM
Ki [2]: < 500 nM
Ki [3, 4]: 500 to 50000 nM

Cc1nc(Cc2ccccc2)n(CC(=O)N[C@@H](CCCCN)B2O[C@@H]3C[C@@H]4C[C@@H](C4(C)C)[C@]3(C)O2)n1 [Example 888]
Ki [1]: < 500 nM
Ki [2]: 500 to 50000 nM
Ki [3]: 500 to 50000 nM

CC1(C)[C@@H]2C[C@H]3OB([C@H](CCCNC(=N)N)NC(=O)c4ccc(-c5ccccc5)cc4[N+](=O)[O-])O[C@@]3(C)[C@H]1C2 [Example 203]
Ki [1]: < 500 nM
Ki [2]: < 500 nM
Ki [3, 4]: < 500 nM

CC1(C)[C@@H]2C[C@H]3OB([C@H](CCCNC(=N)N)NC(=O)c4ccc(-c5ccccc5)c(N)c4)O[C@@]3(C)[C@H]1C2 [Example 299]
Ki [1]: < 500 nM
Ki [2]: < 500 nM
Ki [3, 4]: < 500 nM

CC(C)(C)NS(=O)(=O)c1ccccc1-c1ccc(C(=O)N[C@@H](CCCNC(=N)N)B2O[C@@H]3C[C@@H]4C[C@@H](C4(C)C)[C@]3(C)O2)c(Cl)c1 [Example 262]
Ki [1]: < 500 nM
Ki [2]: < 500 nM
Ki [3, 4]: < 500 nM

CCN(CC)S(=O)(=O)c1ccccc1-c1ccc(C(=O)N[C@@H](CCCNC(=N)N)B2O[C@@H]3C[C@@H]4C[C@@H](C4(C)C)[C@]3(C)O2)c(C)c1 [Example 286]
Ki [1]: < 500 nM
Ki [2]: < 500 nM
Ki [3, 4]: < 500 nM

Cc1nc(-c2ccccc2)ncc1C(=O)N[C@@H](CCCCN)B1O[C@@H]2C[C@@H]3C[C@@H](C3(C)C)[C@]2(C)O1 [Example 3458, R-N^1-((2-phenyl-4-methylpyrimidin-5-yl)carbonyl)borolysine, (+)-pinanediol ester, hydrochloride]
Ki [1]: < 500 nM
Ki [2]: > 500000 nM
Ki [3, 4]: 500 to 50000 nM

CSCc1nc(Cc2ccccc2)nn1CC(=O)N[C@@H](CCCCN)B1OC2CC3CC(C3(C)C)C2(C)O1 (single isomer, unassigned) [Example 2416]
Ki [1]: < 500 nM
Ki [2]: 500 to 50000 nM
Ki [3, 4]: 500 to 50000 nM

CC1(C)C2CC3OB([C@H](CCCCN)NC(=O)Cn4nc(CO)nc4CCc4ccccc4)OC3(C)C1C2 (single isomer, unassigned) [Example 1459]
Ki [1]: < 50000 nM
Ki [2]: 500 to 50000 nM
Ki [3, 4]: 500 to 50000 nM

Cc1cc(-c2ccccc2S(N)(=O)=O)ccc1C(=O)N[C@@H](CCCNC(=N)N)B1O[C@@H]2C[C@@H]3C[C@@H](C3(C)C)[C@]2(C)O1 [Example 227]
Ki [1]: < 500 nM
Ki [2]: < 500 nM
Ki [3, 4]: 500 to 50000 nM

CC1(C)C2CC3OB([C@H](CCCCN)NC(=O)Cn4nc(Cc5ccccc5)nc4COCc4ccccc4)OC3(C)C1C2 (single isomer, unassigned) [Example 2440]
Ki [1]: < 500 nM
Ki [2]: 500 to 50000 nM
Ki [3, 4]: 500 to 50000 nM

CC1(C)[C@@H]2C[C@H]3OB([C@H](CCCCN)NC(=O)Cn4nc(COCc5ccccc5)nc4Cc4ccccc4)O[C@@]3(C)[C@H]1C2 [Example 914]
Ki [1]: < 500 nM
Ki [2]: 500 to 50000 nM
Ki [3, 4]: 500 to 50000 nM

CC(C)(C)OC(=O)Nc1cc(-c2ccccc2)ccc1C(=O)N[C@@H](CCCNC(=N)N)B1O[C@@H]2C[C@@H]3C[C@@H](C3(C)C)[C@]2(C)O1 [Example 303]
Ki [1]: < 500 nM
Ki [2]: 500 to 50000 nM
Ki [3, 4]: 500 to 50000 nM

CC1(C)C2CC3OB([C@H](CCCCN)NC(=O)Cn4nc(Cc5ccccc5)nc4Cc4ccccc4)OC3(C)C1C2 (stereo partly drawn) [Example 2447]
Ki [1]: < 500 nM
Ki [2]: 500 to 50000 nM
Ki [3, 4]: 500 to 50000 nM

Cc1cc(-c2ccccc2S(=O)(=O)NC(C)(C)C)ccc1C(=O)N[C@@H](CCCNC(=N)N)B(O)O [Example 224]
Ki [1]: < 500 nM
Ki [2]: < 500 nM
Ki [3, 4]: < 500 nM

CSCc1nc(Cc2ccccc2)n(CC(=O)N[C@@H](CCCCN)B2O[C@@H]3C[C@@H]4C[C@@H](C4(C)C)[C@]3(C)O2)n1 [Example 892]
Ki [1]: < 500 nM
Ki [2]: 500 to 50000 nM
Ki [3, 4]: 500 to 50000 nM

CC(C)(C)NS(=O)(=O)c1ccccc1-c1ccc(C(=O)N[C@@H](CCCNC(=N)N)B2O[C@@H]3C[C@@H]4C[C@@H](C4(C)C)[C@]3(C)O2)cc1 [Example 261]
Ki [1]: < 500 nM
Ki [2]: < 500 nM
Ki [3, 4]: < 500 nM

Cc1nc(-c2ccccc2)ncc1C(=O)N[C@@H](CCCNC(=N)N)B1O[C@@H]2C[C@@H]3C[C@@H](C3(C)C)[C@]2(C)O1 [Example 3538, R-N^1-((2-phenyl-4-methylpyrimidin-5-yl)carbonyl)boroarginine, (+)-pinanediol ester, hydrochloride]
Ki [1]: < 500 nM
Ki [2]: 500 to 50000 nM
Ki [3, 4]: 500 to 50000 nM

CC1(C)C2CC3OB([C@H](CCCNC(=N)N)NC(=O)Cn4nc(-c5cccc([N+](=O)[O-])c5)nc4Cc4ccccc4)OC3(C)C1C2 (single isomer, unassigned) [Example 969]
Ki [1]: < 500 nM
Ki [2]: 500 to 50000 nM
Ki [3, 4]: 500 to 50000 nM

CC1(C)C2CC3OB([C@H](CCCNC(=N)N)NC(=O)Cn4nc(Cc5ccccc5)nc4Cc4ccccc4)OC3(C)C1C2 (single isomer, unassigned) [Example 967]
Ki [1]: < 500 nM
Ki [2]: 500 to 50000 nM
Ki [3, 4]: < 500 nM

CC1(C)[C@@H]2C[C@H]3OB([C@H](CCCSC(=N)N)NC(=O)c4cccc(-c5ccccc5)c4)O[C@@]3(C)[C@H]1C2 [Example 35]
Ki [1]: < 500 nM
Ki [2]: < 500 nM
Ki [3, 4]: 500 to 50000 nM

CC1(C)[C@@H]2C[C@H]3OB([C@H](CCCCN)NC(=O)Cn4nc(Cc5ccccc5)nc4Cc4ccccc4)O[C@@]3(C)[C@H]1C2 [Example 921]
Ki [1]: < 500 nM
Ki [2]: 500 to 50000 nM
Ki [3]: 500 to 50000 nM

CC1(C)[C@@H]2C[C@H]3OB([C@H](CCCCN)NC(=O)c4cccc(-c5ccccc5)c4)O[C@@]3(C)[C@H]1C2 [Example 68]
Ki [1]: < 50000 nM
Ki [2]: 500 to 50000 nM
Ki [3, 4]: < 500 nM

CC1(C)C2CC3OB([C@H](CCCCN)NC(=O)Cn4nc(Cc5ccccc5)nc4CC#N)OC3(C)C1C2 (single isomer, unassigned) [Example 2422]
Ki [1]: < 500 nM
Ki [2]: 500 to 50000 nM
Ki [3, 4]: 500 to 50000 nM
